Laboratory results from patent USRE39420E1, “1,2-Diphenylpyrrole derivatives, their preparation and their therapeutic uses” (Sankyo Company, Limited, priority 1996, dated 2006).

Key:
[1] = target: T1, Cyclooxygenase-1 from Ram Seminal Vesicle Microsomes (RSVM) (Ovis aries, UniProt P05979); experiment: Inhibitory activity on cyclooxygenase-1 from ram seminal vesicle microsomes (PGE2 ELISA); assay type: biochemical; details: PGE2 formation, read-out: Inhibitory Effect on COX-1[IC50(μM)]
T1 construct: ram seminal vesicles were homogenised by a blender; from tissue; host or cells: ram seminal vesicles (microsomes)
T1 sequence (P05979 25-600): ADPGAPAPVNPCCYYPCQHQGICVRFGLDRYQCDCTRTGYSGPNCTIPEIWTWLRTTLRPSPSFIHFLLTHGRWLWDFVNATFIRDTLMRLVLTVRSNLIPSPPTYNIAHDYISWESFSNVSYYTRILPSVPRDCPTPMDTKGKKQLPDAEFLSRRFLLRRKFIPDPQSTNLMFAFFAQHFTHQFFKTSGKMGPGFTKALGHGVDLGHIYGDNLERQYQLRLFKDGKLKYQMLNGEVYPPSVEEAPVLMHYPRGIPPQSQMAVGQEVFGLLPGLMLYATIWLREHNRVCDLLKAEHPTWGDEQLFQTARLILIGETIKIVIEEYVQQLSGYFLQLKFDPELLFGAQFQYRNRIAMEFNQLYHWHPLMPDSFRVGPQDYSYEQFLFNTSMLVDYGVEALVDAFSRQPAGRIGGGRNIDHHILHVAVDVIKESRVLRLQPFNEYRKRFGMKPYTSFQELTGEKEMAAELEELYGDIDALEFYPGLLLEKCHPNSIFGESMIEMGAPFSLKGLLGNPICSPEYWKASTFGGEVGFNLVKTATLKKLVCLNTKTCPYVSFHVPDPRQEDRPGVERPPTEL
Experimental: (§1) In order to prepare cyclooxygenase-1 (COX-1) microsomes, ram seminal vesicles were homogenised by a blender. To prepare cyclooxygenase-2 (COX-2) microsomes, an expression vector which contains the human COX-2 gene was introduced into COS cells. The cells were homogenised by sonication after 66 hours cultivation. Microsomes were then prepared in accordance with conventional methods. Enzyme activity was assayed as follows. The assay mixture contained 10 μl of COX-1 or COX-2 microsomes (5 to 15 μg), 2 μl of sample dissolved in dimethyl sulfoxide, 50 μl of 200 mM Tris (pH 7.6), 10 μl of 20 mM reduced glutathione, 10 μl of 10 mM epinephrine, and 15.5 μl of distilled water. After preincubation at 37° C. for 15 minutes, 2.5 μl of 10 μM arachidonic acid (dissolved in ethanol) were then added to the mixture (final volume of 100 μl) and allowed to react at 37° C. for 30 minutes. The final dimethyl sulfoxide and ethanol concentrations were 2% and 2.5%, respectively. To the reaction mixture were then added 15 μl of ice-cooled 0.2M HCl to stop the reaction, and the mixture was cooled at 4° C. for 5 minutes. 15 μl of a 0.2M aqueous solution of sodium hydroxide were then added to the reaction mixture to neutralise the pH. The amount of PGE2, in the reaction mixture was measured using a commercially available ELISA kit (Cayman). IC50 was calculated from the regression line determined by the inhibition rates of PGE2 formation and the concentrations of the compound.

[2] = system: Carrageenan-induced Paw Edema in rats; experiment: Carrageenan-induced paw edema test; assay type: in vivo, Wistar-Imamichi rats; details: Rattus norvegicus, oral, 3 hours after carrageenan, read-out: Inhibition Rate (%)
In short: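 Male Wistar-Imamichi rats (6 weeks, 110-120 g), fasted 16 h, dosed orally 30 min before subplantar injection of 1% carrageenan into right hind paw. Paw volume measured by plethysmometer before dosing and 3 h after carrageenan; edema intensity = (volume at 3 h/volume before injection) − 1.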

[3] = target: T2, Human Recombinant Cyclooxygenase-2 (Homo sapiens, UniProt P35354); experiment: Inhibitory activity on human recombinant cyclooxygenase-2 microsomes from COS cells (PGE2 ELISA); assay type: biochemical; details: for IC50: human recombinant COX-2 microsomes, PGE2 formation, read-out: Inhibitory Effect on COX-2 [IC50 (μM)]
T2 construct: made in house; host or cells: COS cells (transient expression; microsomes prepared after 66 hours)
T2 sequence (P35354 18-604): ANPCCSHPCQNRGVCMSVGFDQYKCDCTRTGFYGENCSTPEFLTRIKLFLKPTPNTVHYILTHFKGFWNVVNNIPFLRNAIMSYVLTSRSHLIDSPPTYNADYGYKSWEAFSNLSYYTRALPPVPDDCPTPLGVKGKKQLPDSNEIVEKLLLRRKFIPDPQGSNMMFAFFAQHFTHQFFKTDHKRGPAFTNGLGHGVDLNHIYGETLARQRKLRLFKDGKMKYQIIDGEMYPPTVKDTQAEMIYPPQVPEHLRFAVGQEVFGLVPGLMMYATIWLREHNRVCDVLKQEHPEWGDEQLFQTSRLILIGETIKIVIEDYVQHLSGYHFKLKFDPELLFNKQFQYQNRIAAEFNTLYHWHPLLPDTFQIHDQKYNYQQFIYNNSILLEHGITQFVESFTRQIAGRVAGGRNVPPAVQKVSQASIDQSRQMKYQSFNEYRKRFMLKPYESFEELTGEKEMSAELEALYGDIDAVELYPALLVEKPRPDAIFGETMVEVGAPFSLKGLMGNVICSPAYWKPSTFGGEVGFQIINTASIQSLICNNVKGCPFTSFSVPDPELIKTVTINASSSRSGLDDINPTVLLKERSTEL
Experimental: In order to prepare cyclooxygenase-1 (COX-1) microsomes, ram seminal vesicles were homogenised by a blender. To prepare cyclooxygenase-2 (COX-2) microsomes, an expression vector which contains the human COX-2 gene was introduced into COS cells. The cells were homogenised by sonication after 66 hours cultivation. Microsomes were then prepared in accordance with conventional methods.
Enzyme activity was assayed as follows.
as §1, with “The” for “In order to prepare cyclooxygenase-1 (COX-1) microsomes, ram seminal vesicles were homogenised by a blender. To prepare cyclooxygenase-2 (COX-2) microsomes, an expression vector which contains the human COX-2 gene was introduced into COS cells. The cells were homogenised by sonication after 66 hours cultivation. Microsomes were then prepared in accordance with conventional methods. Enzyme activity was assayed as follows. The”

Which IC50 [1] does the source give for `COc1ccc(-c2cc(C)cn2-c2ccc(S(N)(=O)=O)cc2)cc1` [Example 52, 2-(4-Methoxyphenyl)-4-methyl-1-(4-sulfamoylphenyl)pyrrole] here?
Its IC50 is > 100 µM.

And the inhibition in vivo at 50 mg/kg [2]?
Its inhibition in vivo at 50 mg/kg is 65%.

And the IC50 [3]?
Its IC50 is 0.016 µM.

And the “Selectivity (COX-1/COX-2)” value ([3]; ratio of IC50 COX-1/COX-2)?
The value was >6250.

For `Cc1ccc(-c2ccccc2)n1-c1ccc(S(N)(=O)=O)cc1` [Compound A, 5-methyl-2-phenyl-1-(4-sulfamoylphenyl)pyrrole, reference compound], which IC50 [1] is on record?
Its IC50 is > 100 µM.

And the inhibition in vivo at 50 mg/kg [2]?
Its inhibition in vivo at 50 mg/kg is 14%.

And the IC50 [3]?
The IC50 was > 100 µM.
